Experimental data: patent US11993599B2, “Therapeutic compounds” (Genentech, Inc., priority 2021, dated 2024)

Columns and labels:
Assay type in all cases: cell-based
[1] = target: T1, BRM (Homo sapiens, UniProt P51531); test: Immunofluorescence assay for BRM degradation in SW1573 cells; parameters: treated overnight at 4° C. with either BRM primary antibody (Cell signaling Cat #11966) or BRG primary antibody; endogenous in cells; host or cells: SW1573; settings: 20 hours incubation; for DC50: immunofluorescence mean nuclear signal, read-out: BRM IF Degradation IC50; for BRM IF Degradation Sinf (%): normalized to a known degrader control
Summary of the method: (§1)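 Imaging-based readout in SW1573: 20 h dosing, formaldehyde fixation, antibody staining for either remodeler, nuclear intensity per cell quantified. Values normalized to control degrader; floating-maximum fit.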

[2] = target: T1, BRM; test: HiBIT nanoluciferase complementation screen for BRM degraders; settings: 18 hours, BRM-HiBIT KI Hela cells, luminescence normalized: DMSO only = 0%, no cells = −100%; for Median HiBiT activity 1 μM: compound 1 μM; for Median HiBiT activity 10 μM: compound 10 μM
Description: Example B-1: HiBIT Nanoluciferase Complementation Screen for BRM Degraders
To assess BRM degradation, compounds were screened for their effect of BRM levels using the HiBIT nanoluciferase complementation strategy developed at Promega. In brief, a HELA cell line that was genetically modified via CRISPR/CAS9 was used to fuse the HiBIT sequence at the 3′ end of BRM (BRM-HiBIT KI Hela). BRM protein levels were then detected using the Nano-Glo HiBIT lytic detection reagent (Promega).
The screened compounds were plated into a white 384-well plate at 10 μM and 1 μM in 25 nL DMSO using an Echo dispenser (Labcyte). BRM-HiBIT KI Hela cells were seeded in the compound plate at 5000 cell per well at 25 μl in DMEM growth media (containing 10% FBS, 1% Glutamax (GIBCO cat #31053-028), lx Penicillin-Streptomycin (ROCHE, cat #1107444001), 4.5 g/L D-Glucose, and no phenol red). After incubation with compounds for 18 hours at 37° C., cell viability was assessed by the addition of 5 μl Cell Titer-Fluor reagent (Promega). After 30 s of mixing on an orbital shaker, and 30 minutes incubation at 37° C., fluorescence was measured with an INFINITE F500 (Tecan) (380-400 nm excitation, 505 nm emission). Next, to assess BRM HiBIT levels, 30 μl of Nano-Glo HiBIT lytic detection reagent (Promega) containing 1:50 Nano-Glo HiBIT lytic substrate and 1:100 LgBIT protein per ml of lytic buffer was added. After shaking on an orbital shaker at 350 rpm for 10 minutes, luminescence was measured on the INFINITE F500 (Tecan). To assess compound effects, luminescence signal was normalized with the mean of wells treated with DMSO only set to 0% and the mean of wells containing no cells set to −100%. Note that, in Table 4, the “Compound Number” corresponds to that used in Table 1.

[3] = target: T2, BRG1 (Homo sapiens, UniProt P51532); test: Immunofluorescence assay for BRG1 degradation in SW1573 cells; settings: 20 hours incubation; for DC50: immunofluorescence mean nuclear signal, read-out: BRG1 IF Degradation IC50; for Dmax: SW1573, 20 h, normalized to a known degrader control, read-out: BRG1 IF Degradation Sinf (%)
T2 construct: either BRM primary antibody (Cell signaling Cat #11966) or BRG primary antibody (Abcam, ab 110641); endogenous in cells; host or cells: SW1573
Summary of the method: as §1

T1 sequence (P51531 whole entry): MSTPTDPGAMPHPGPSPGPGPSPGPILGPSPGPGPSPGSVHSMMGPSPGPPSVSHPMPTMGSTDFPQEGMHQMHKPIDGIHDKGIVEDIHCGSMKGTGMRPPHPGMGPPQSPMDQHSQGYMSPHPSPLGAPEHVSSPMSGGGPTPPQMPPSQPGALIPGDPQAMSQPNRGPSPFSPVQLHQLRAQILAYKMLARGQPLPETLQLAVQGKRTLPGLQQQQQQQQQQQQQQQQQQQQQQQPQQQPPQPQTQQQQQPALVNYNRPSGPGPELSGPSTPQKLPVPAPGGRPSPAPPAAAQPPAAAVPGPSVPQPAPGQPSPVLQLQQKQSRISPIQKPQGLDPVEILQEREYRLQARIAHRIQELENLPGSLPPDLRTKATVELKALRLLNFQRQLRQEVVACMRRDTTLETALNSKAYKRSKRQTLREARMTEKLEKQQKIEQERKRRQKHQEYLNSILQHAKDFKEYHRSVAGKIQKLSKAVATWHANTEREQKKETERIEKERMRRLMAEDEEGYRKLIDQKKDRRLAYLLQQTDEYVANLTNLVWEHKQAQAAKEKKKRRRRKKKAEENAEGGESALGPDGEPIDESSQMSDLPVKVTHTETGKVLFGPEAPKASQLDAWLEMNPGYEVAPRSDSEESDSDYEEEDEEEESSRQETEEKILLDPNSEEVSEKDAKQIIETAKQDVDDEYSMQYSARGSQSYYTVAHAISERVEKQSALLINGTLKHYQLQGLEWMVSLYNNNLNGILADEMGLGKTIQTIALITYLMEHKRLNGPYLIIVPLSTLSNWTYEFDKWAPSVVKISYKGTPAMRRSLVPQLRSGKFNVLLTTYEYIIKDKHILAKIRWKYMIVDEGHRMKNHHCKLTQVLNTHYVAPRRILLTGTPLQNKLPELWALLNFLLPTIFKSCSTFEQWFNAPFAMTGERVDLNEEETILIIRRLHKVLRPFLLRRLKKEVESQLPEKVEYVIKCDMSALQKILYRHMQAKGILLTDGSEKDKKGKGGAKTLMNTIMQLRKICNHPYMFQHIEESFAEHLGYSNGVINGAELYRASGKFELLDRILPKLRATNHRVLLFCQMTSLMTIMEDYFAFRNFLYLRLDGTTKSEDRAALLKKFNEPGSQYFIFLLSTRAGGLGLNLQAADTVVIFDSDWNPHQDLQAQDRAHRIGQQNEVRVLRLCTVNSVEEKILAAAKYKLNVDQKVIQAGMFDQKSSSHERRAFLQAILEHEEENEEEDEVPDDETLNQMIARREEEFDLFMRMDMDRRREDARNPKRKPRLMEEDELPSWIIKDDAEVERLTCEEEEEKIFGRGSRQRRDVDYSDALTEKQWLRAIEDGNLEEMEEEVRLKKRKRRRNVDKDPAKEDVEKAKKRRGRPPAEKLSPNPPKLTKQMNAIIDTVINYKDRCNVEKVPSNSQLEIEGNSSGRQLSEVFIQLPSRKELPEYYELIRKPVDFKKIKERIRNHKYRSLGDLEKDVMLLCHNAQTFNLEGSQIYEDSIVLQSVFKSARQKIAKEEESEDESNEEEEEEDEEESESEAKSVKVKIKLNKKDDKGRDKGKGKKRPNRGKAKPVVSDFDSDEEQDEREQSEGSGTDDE
T2 sequence (P51532 whole entry): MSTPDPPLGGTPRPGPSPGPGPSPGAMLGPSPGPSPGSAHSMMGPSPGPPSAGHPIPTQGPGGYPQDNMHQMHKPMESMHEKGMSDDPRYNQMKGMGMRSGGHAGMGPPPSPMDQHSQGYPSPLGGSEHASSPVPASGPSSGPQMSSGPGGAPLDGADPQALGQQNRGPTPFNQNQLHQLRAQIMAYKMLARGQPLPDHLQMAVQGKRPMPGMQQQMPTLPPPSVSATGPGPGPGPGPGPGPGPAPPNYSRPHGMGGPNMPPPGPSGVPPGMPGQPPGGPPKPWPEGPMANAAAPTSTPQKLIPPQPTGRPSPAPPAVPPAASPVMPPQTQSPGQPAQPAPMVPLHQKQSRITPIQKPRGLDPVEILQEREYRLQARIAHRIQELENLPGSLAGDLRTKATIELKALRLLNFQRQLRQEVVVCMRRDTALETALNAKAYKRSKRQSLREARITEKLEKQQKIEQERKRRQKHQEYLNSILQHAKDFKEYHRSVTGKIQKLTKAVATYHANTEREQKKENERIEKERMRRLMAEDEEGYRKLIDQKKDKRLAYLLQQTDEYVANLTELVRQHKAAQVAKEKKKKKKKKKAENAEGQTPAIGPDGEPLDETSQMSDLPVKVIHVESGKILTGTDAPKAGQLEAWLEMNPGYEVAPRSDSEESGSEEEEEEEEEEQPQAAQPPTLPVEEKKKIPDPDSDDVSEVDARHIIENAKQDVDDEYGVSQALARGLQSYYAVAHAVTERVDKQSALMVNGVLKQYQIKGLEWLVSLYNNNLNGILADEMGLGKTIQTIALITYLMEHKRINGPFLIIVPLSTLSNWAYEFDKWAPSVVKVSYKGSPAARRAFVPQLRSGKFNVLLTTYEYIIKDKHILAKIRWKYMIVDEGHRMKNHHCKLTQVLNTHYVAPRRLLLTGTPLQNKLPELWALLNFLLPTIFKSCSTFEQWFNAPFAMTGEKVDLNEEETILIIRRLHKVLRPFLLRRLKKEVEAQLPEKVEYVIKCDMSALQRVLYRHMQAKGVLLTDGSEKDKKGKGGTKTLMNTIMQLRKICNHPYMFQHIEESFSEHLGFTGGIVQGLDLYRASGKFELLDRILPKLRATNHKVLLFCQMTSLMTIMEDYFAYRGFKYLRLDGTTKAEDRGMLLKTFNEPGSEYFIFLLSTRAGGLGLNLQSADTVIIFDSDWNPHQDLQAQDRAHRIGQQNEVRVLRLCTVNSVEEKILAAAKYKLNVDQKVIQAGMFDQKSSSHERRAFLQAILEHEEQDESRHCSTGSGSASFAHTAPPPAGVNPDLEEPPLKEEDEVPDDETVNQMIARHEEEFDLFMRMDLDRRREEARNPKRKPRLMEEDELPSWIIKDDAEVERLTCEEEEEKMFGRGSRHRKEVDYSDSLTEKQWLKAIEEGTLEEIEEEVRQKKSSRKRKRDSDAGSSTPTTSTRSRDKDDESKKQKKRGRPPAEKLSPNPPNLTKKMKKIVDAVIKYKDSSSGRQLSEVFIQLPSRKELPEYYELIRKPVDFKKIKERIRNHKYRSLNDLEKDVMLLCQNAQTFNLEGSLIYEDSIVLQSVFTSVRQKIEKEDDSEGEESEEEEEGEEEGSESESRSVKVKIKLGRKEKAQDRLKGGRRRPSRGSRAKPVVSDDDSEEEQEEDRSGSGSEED

Structure (SMILES) | DC50 [1] | Median HiBiT activity 1 μM [2] | Median HiBiT activity 10 μM [2] | DC50 [3] | Dmax [3] | BRM IF Degradation Sinf (%) [1]
Cn1cc(C#Cc2cc(N3C4CCC3CN(c3cc(-c5ccccc5O)nnc3N)C4)ccn2)cn1 [Compound 21, 2-(6-amino-5-(8-(2-((1-methyl-1H-pyrazol-4-yl)ethynyl)pyridin-4-yl)-3,8-diazabicyclo[3.2.1]octan-3-yl)pyridazin-3-yl)phenol] | > 100 nM | −32.7297% | −42.1813% | 10 to 100 nM | 0 to 30% | –
Nc1nnc(-c2ccccc2O)cc1N1CC2CCC(C1)N2c1ccnc(C#CC2CCOCC2)c1 [Compound 22, 2-(6-amino-5-(8-(2-((tetrahydro-2H-pyran-4-yl)ethynyl)pyridin-4-yl)-3,8-diazabicyclo[3.2.1]octan-3-yl)pyridazin-3-yl)phenol] | > 100 nM | −30.6701% | −33.6373% | > 100 nM | 0 to 30% | –
C[C@@H](N)C#Cc1cc(N2C3CCC2CN(c2cc(-c4ccccc4O)nnc2N)C3)ccn1 [Compound 23, 2-(6-amino-5-(8-(2-((R)-3-aminobut-1-yn-1-yl)pyridin-4-yl)-3,8-diazabicyclo[3.2.1]octan-3-yl)pyridazin-3-yl)phenol] | < 10 nM | −29.3818% | −58.9213% | 10 to 100 nM | 30 to 70% | E (E indicates −30%-−70%)
NCC#Cc1cc(N2C3CCC2CN(c2cc(-c4ccccc4O)nnc2N)C3)ccn1 [Compound 24, 2-(6-amino-5-(8-(2-(3-aminoprop-1-yn-1-yl)pyridin-4-yl)-3,8-diazabicyclo[3.2.1]octan-3-yl)pyridazin-3-yl)phenol] | 10 to 100 nM | −27.1137% | −43.5174% | > 100 nM | – | E (E indicates −30%-−70%)
Nc1nnc(-c2ccccc2O)cc1N1CC2CCC(C1)N2c1ccnc(C#CC2CCNC2)c1 (stereo not drawn) [Compound 25, 2-(6-amino-5-(8-(2-(pyrrolidin-3-ylethynyl)pyridin-4-yl)-3,8-diazabicyclo[3.2.1]octan-3-yl)pyridazin-3-yl)phenol] | > 100 nM | −26.7344% | −55.1975% | > 100 nM | – | E (E indicates −30%-−70%)
Nc1nnc(-c2ccccc2O)cc1N1CC2CCC(C1)N2c1ccnc(C#CCCO)c1 [Compound 26, 2-(6-amino-5-(8-(2-(4-hydroxybut-1-yn-1-yl)pyridin-4-yl)-3,8-diazabicyclo[3.2.1]octan-3-yl)pyridazin-3-yl)phenol] | > 100 nM | −25.9348% | −28.4202% | > 100 nM | – | –
Nc1nnc(-c2ccccc2O)cc1N1CC2CCC(C1)N2c1ccnc(C#CCCCCO)c1 [Compound 27, 2-(6-amino-5-(8-(2-(6-hydroxyhex-1-yn-1-yl)pyridin-4-yl)-3,8-diazabicyclo[3.2.1]octan-3-yl)pyridazin-3-yl)phenol] | > 100 nM | −23.7734% | −28.4819% | > 100 nM | – | D (D indicates 0-−30%)
Nc1nnc(-c2ccccc2O)cc1N1CC2CCC(C1)N2c1ccnc(C#CCN2CCNCC2)c1 [Compound 28, 2-(6-amino-5-(8-(2-(3-(piperazin-1-yl)prop-1-yn-1-yl)pyridin-4-yl)-3,8-diazabicyclo[3.2.1]octan-3-yl)pyridazin-3-yl)phenol] | > 100 nM | −23.3156% | −44.9026% | > 100 nM | – | E (E indicates −30%-−70%)
Nc1nnc(-c2ccccc2O)cc1N1CC2CCC(C1)N2c1ccnc(C#C[C@H]2CC[C@H](N)CC2)c1 [Compound 29, 2-(6-amino-5-(8-(2-(((1r,4r)-4-aminocyclohexyl)ethynyl)pyridin-4-yl)-3,8-diazabicyclo[3.2.1]octan-3-yl)pyridazin-3-yl)phenol] | > 100 nM | −22.4859% | −33.4085% | > 100 nM | – | –
NCCC#Cc1cc(N2C3CCC2CN(c2cc(-c4ccccc4O)nnc2N)C3)ccn1 [Compound 30, 2-(6-amino-5-(8-(2-(4-aminobut-1-yn-1-yl)pyridin-4-yl)-3,8-diazabicyclo[3.2.1]octan-3-yl)pyridazin-3-yl)phenol] | > 100 nM | −18.8155% | −47.5549% | > 100 nM | 0 to 30% | E (E indicates −30%-−70%)
Nc1nnc(-c2ccccc2O)cc1N1CC2CCC(C1)N2c1ccnc(C#CCN2CCCC(N)C2)c1 (stereo not drawn) [Compound 31, 2-(6-amino-5-(8-(2-(3-(3-aminopiperidin-1-yl)prop-1-yn-1-yl)pyridin-4-yl)-3,8-diazabicyclo[3.2.1]octan-3-yl)pyridazin-3-yl)phenol] | > 100 nM | −16.7799% | −47.9900% | > 100 nM | – | –
NCC(=O)NCCCc1cc(N2C3CCC2CN(c2cc(-c4ccccc4O)nnc2N)C3)ccn1 [Compound 32, 2-amino-N-(3-(4-(3-(3-amino-6-(2-hydroxyphenyl)pyridazin-4-yl)-3,8-diazabicyclo[3.2.1]octan-8-yl)pyridin-2-yl)propyl)acetamide] | 10 to 100 nM | −16.4623% | −30.3732% | 10 to 100 nM | 0 to 30% | E (E indicates −30%-−70%)
NCCCc1cc(N2C3CCC2CN(c2cc(-c4ccccc4O)nnc2N)C3)ccn1 [Compound 33, 2-(6-amino-5-(8-(2-(3-aminopropyl)pyridin-4-yl)-3,8-diazabicyclo[3.2.1]octan-3-yl)pyridazin-3-yl)phenol] | > 100 nM | −14.8996% | −55.0132% | > 100 nM | 30 to 70% | E (E indicates −30%-−70%)
